Measurements taken from paper PMC12275138, “Identification of glycosylated flavonoids as new physiological ligands of the hazel allergen Cor a 1: Complex structures reveal different binding orientation and specificity of mono- and disaccharide derivatives” (Food Chemistry: X, 2025).

Experiments:
Cor a 1.0101 = biological target: T1, Cor a 1.0101 (Corylus avellana, UniProt Q08407); assay: 1H, […] HSQC screening; format: binding; settings: 60 µM protein, at least 5-fold ligand excess, pH 7.5
T1 construct: recombinant from E. coli, 15N labelled
T1 sequence (Q08407 2-160): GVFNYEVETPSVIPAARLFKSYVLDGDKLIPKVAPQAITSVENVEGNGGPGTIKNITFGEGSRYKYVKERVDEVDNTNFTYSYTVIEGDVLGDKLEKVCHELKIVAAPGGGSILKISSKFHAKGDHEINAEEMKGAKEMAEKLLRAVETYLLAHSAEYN

Cor a 1.0302 = biological target: T2, Cor a 1.0302 (Corylus avellana, UniProt A0AA49EHN2); assay: 1H, […] HSQC screening; format: binding; settings: 60 µM protein, at least 5-fold ligand excess, pH 7.5
T2 construct: recombinant from E. coli, 15N labelled
T2 sequence (A0AA49EHN2 1-159): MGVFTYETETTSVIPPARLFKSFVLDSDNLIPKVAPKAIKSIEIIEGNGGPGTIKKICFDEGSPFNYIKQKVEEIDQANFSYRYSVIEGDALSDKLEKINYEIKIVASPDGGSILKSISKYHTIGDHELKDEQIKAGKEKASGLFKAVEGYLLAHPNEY

| Structure (SMILES) | 1H,15N HSQC screening (Cor a 1.0101) | 1H,15N HSQC screening (Cor a 1.0302) |
| --- | --- | --- |
| O=c1c(O[C@@H]2O[C@H](CO)[C@@H](O)[C@H](O)[C@H]2O)c(-c2ccc(O)c(O)c2)oc2cc(O)cc(O)c12 [Q3OGlc] | All the other isoallergens bound to Q3OGlc, Q3OGal, and K3OR. | All the other isoallergens bound to Q3OGlc, Q3OGal, and K3OR. |
| C[C@@H]1O[C@@H](Oc2c(-c3ccc(O)cc3)oc3cc(O)cc(O)c3c2=O)[C@H](O)[C@H](O)[C@H]1O [K3OR] | All the other isoallergens bound to Q3OGlc, Q3OGal, and K3OR. |  |
